The target of series [1] is P-gp (Homo sapiens, UniProt P08183). Description: P-gp transportation in MDCK-MDR1 cells. In kind it is in vitro ADME.
Series [2] in a line: In vitro metabolism in liver microsomes. In kind it is in vitro ADME. Particulars: 10 μM, 60-min incubation with NADPH and UDPGA; 11 metabolites (M1–M11).
The test system of series [3] is CYP3A4. Particulars: coadministration of zanubrutinib; cited from earlier work.
For series [4], the system named is CYP2C9. Particulars: coadministration of zanubrutinib; cited from earlier work.
For series [5], the system named is CYP3A. Particulars: cited from earlier work.
Series [6] concerns the target T1, CYP2C19 (Homo sapiens, UniProt P33261). Description: CYP reversible inhibition in HLMs. Particulars: S-mephenytoin.
For series [7], the target named is T1, CYP2C19. Description: Time-dependent CYP inhibition in HLMs. Particulars: 10 µM zanubrutinib, 30 min pre-incubation with HLMs and NADPH.
Series [8] concerns the target T2, OAT1 (Homo sapiens, UniProt Q4U2R8).
T2 sequence (Q4U2R8 1-563): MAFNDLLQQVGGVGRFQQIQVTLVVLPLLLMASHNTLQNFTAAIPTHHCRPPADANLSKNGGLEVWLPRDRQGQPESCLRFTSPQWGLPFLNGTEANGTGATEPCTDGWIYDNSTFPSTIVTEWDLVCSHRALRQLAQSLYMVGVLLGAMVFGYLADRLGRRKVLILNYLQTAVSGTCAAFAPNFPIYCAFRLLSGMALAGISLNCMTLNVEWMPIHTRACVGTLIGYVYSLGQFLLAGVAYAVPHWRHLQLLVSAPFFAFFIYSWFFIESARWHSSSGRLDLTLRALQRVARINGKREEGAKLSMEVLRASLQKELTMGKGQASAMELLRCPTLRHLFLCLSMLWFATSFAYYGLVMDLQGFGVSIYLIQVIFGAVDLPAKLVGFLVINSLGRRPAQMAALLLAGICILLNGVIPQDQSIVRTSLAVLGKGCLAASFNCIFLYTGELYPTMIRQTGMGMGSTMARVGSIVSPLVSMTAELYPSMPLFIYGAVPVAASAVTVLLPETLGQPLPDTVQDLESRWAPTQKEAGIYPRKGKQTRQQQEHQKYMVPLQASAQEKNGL
The experiment in a line: SLC transportation assay in HEK293 cells. Particulars: uptake ratios <2 at 0.1, 0.3, 5 µM.

Sequence of P-gp (P08183 whole entry): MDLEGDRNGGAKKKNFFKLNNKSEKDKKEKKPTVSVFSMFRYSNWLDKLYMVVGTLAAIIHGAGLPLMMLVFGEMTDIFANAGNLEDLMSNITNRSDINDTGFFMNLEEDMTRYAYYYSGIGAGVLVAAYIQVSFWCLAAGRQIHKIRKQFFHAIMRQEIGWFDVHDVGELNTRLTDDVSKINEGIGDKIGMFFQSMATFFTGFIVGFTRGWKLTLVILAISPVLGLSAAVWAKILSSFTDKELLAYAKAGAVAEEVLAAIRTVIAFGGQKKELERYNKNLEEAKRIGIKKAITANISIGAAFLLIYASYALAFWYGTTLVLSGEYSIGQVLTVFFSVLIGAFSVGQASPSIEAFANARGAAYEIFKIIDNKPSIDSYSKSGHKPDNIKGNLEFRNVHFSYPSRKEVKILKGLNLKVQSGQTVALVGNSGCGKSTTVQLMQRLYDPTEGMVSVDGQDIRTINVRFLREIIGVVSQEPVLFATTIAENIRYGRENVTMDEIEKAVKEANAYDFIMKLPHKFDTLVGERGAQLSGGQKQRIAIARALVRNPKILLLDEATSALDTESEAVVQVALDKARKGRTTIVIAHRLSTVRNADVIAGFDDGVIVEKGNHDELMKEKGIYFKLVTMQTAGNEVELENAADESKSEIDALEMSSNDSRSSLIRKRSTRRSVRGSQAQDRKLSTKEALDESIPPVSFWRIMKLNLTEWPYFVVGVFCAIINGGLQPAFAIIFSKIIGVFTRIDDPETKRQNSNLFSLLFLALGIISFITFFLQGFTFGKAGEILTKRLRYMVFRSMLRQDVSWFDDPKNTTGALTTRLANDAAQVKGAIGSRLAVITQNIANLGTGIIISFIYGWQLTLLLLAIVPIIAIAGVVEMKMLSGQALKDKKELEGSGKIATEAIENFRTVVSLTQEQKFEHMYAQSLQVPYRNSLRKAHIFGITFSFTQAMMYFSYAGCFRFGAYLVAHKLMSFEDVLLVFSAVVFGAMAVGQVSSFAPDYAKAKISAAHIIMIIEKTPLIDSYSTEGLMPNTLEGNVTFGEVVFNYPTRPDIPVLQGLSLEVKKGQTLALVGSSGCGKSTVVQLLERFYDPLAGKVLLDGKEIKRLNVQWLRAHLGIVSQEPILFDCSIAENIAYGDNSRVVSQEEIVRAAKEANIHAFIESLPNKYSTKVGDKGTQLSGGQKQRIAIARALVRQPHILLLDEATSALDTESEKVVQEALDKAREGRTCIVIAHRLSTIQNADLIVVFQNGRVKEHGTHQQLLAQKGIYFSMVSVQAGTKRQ
T1 sequence (P33261 whole entry): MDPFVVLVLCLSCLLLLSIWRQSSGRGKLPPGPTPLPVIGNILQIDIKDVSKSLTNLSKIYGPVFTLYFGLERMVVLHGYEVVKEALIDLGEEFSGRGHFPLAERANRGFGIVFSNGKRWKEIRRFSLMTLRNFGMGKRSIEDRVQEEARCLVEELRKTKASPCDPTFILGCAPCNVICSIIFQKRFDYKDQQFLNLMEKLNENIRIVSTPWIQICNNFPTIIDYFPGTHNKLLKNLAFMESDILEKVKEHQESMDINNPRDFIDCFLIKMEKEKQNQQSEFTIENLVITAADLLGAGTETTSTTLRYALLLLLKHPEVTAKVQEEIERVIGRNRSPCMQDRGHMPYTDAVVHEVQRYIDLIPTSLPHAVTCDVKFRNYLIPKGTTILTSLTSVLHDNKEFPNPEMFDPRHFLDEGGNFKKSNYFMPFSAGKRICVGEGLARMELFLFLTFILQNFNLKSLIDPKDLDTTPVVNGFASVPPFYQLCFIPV

In series [1] (dog, MDCK-MDR1), `C=CC(=O)N1CCC([C@@H]2CCNc3c(C(N)=O)c(-c4ccc(Oc5ccccc5)cc4)nn32)CC1` [zanubrutinib] showed a Papp A→B at 90 min, 1 µM of 9.16 ± 0.1 ×10⁻⁶ cm/s; a Papp A→B at 90 min, 10 µM of 21.9 ± 0.049 ×10⁻⁶ cm/s; a Papp B→A at 90 min, 1 µM of 31.7 ± 0.12 ×10⁻⁶ cm/s; a Papp B→A at 90 min, 10 µM of 47.9 ± 0.094 ×10⁻⁶ cm/s. The P-gp substrate status result in series [1] (efflux ratio >2 indicates substrate) is “potential P‐gp substrate”. Besides, the “Metabolism in liver microsomes” value in series [2] is “extensively metabolized”. The “Reduction of AUC of CYP3A probe midazolam” value in series [3] was 47.5%. In addition, the “Effect on the clinical PK of warfarin” value in series [4] was “no remarkable effect”. Besides, in series [5] (co-administered with CYP3A inducer rifampin), the “Reduction in AUC0‐inf of zanubrutinib” value is 13.5 fold. In addition, the “Increase in AUC0‐inf of zanubrutinib” value in series [5] (co-administered with CYP3A inhibitor itraconazole) was 3.8 fold. Besides, the R1 in series [6] (DDI basic model, hepatic) came out at 1.03. In series [6] (static model term, liver inhibition), this molecule returned an Ah of 0.97. The “Percent loss of enzymatic activity” value in series [7] is on record as −4.58%. In series [8], the Substrate status result was “unlikely to be a substrate”.

The term Papp A→B denotes how fast a substance crosses the layer from the apical side. A high value points to ready permeation. A word on the Papp B→A: it is the apparent permeability from the basolateral to the apical side of a cell layer.

(Values after article PMC8524670 (Pharmacology Research & Perspectives, 2021).)
